Two compounds from US20190083455A1, “METHODS AND COMPOSITIONS FOR THE MODULATION OF BETA-ENDORPHIN LEVELS” (The General Hospital Corporation, priority 2014, published 2019) can be followed below.

In one data set the test system is mice. Nature of the data set: Conditioned place preference testing with i.v. β-endorphin. The data set is classed as in vivo. As to conditions: i.v. tail vein.
Data set [1] deals with B16, B16-F0, Melan-a and PAM212 mouse cell lines. Nature of the data set: RT-qPCR of POMC and Mitf after forskolin treatment, mouse cell lines. Format: cell-based. Particulars: 20 μM forskolin; mouse cells. How it is done: (§1) UACC62 and UAC257 human melanoma cells were obtained from NCI and grown in RPMI (Cellgro) medium supplemented with 10% fetal bovine serum and penicillin/streptomycin/L-glutamine. Malme-3M human melanoma and B16 mouse melanoma cell line were obtained from ATCC and grown in DEMEM (Cellgro) medium supplemented with 5% fetal bovine serum and 1% penicillin/streptomycin/L-glutamine. Melan-a cells were kindly provided by Dorothy C. Bennett and were grown in Ham's F10 medium supplemented with 10% fetal bovine serum and 1% penicillin/streptomycin/L-glutamine. The mouse keratinocyte cell line PAM212 was generously shared by Dr. Paolo Dotto (Massachusetts General Hospital and Harvard Medical School, Boston, Mass.) and grown in 10% fetal bovine serum and 1% penicillin/streptomycin/L-glutamine. Cells were grown to 70% confluence prior to use in experiments in humidified incubators supplemented with 5% CO2.
(§2) After forskolin (Sigma) treatment at 20 μM final concentration at the stated times, mRNA was isolated using RNeasy® plus minikits from Qiagen, and was subjected to KAPA SYBR® FAST One-Step qRT-PCR (Kapa Biosystems). For each reaction, 100 ng of RNA was subjected to the following steps: reverse transcription for 30 min at 48° C., inactivation for 10 min at 95° C., expansion for 40 cycles (15 sec at 95° C. and 30 sec at 60° C.). The results are the average of three independent experiments. […]

The test system of data set [2] is Malme-3M, UAC257 and UACC62 human melanoma cell lines. Nature of the data set: RT-qPCR of POMC after forskolin treatment, human melanoma cell lines. Particulars: 20 μM forskolin; human samples. Format: cell-based. How it is done:
as §1, §2

The test system of the next data set is β-endorphin. Nature of the data set: Plasma β-endorphin after topical forskolin treatment. The data set is classed as in vivo. As to conditions: male mice, non-K14-SCF vs K14-SCF/Mc1r^e/e. How it is done: Blood samples from mice were collected in EDTA microvotte tubes containing 0.6 UTI aprotinin (Sigma). Samples were spun at 3500 rpm at 4° C. for 20 min and the plasma (top layer) was isolated and transferred to a new tube and stored at −80° C. until β-endorphin measurement was performed. β-Endorphin was measured using a radioimmunoassay from Phoenix Pharmaceuticals, following the manufacturer's instructions.
All experiments were done in C57BL/6J (Jackson laboratory) mice. C57BL/6J Mc1r^e/e (described at Robbins L S, et al., Pigmentation phenotypes of variant extension locus alleles result from point mutations that alter MSH receptor function. Cell. 1993 Mar. 26; 72(6) 72, 827-834.) were crossed with K14-Scf transgenic mice as previously reported (Kunisada T, et. al., Development. 1998 August; 125(15):2915-23.). Mice were 8 weeks old at the start of each experiment.
A crude extract of Coleus forskohlii root preparation was used as a working source of forskolin (ATZ Natural, Edgewater, N.J.) for the topical treatment of this drug (Lin C B, et. al., Modulation of microphthalmia-associated transcription factor gene expression alters skin pigmentation. J Invest Dermatol 119, 1330-1340 (2002)). […] Samples were processed and β-endorphin was measured.

Text for mice: To test whether it is plausible that skin-derived β-endorphin may cause central effects we decided to assess whether peripherally administered β-endorphin injected i.v. into the tail vein could cause conditioned place preference.

With “β-endorphin (YGGFMTSEKSQTPLVTLFKNAIIKNAYKKGE; Beta-endorphin; UniProt P01189 237-267, looked up) [endogenous opioid peptide, administered i.v. through the tail vein]”, the “conditioned place preference (time spent in the white box)” value in the data set with mice is reported as “spent more time in the white box after conditioning”.

For the compound `C=C[C@@]1(C)CC(=O)[C@]2(O)[C@@]3(C)[C@@H](O)CCC(C)(C)[C@@H]3[C@H](O)[C@H](OC(C)=O)[C@@]2(C)O1` [forskolin], in data set [1], the “time of peak Mitf mRNA expression after treatment” value was 2 h and the “time of peak POMC mRNA expression after treatment” value came out at 8 h. In addition, the “time point of increase of POMC after treatment” value in data set [2] was in the range of 2 to 4 h. The “β-endorphin fold induction, comparison of genotypes” value in the data set with β-endorphin is on record as “higher fold induction in the non-K14-SCF mice compared to the K14-SCF/Mc1r^e/e”.
